The conditions of series [1]: mouse, in vivo.
For series [2], the system named is B. anthracis Sterne strain spores. Set-up: species or system Bacillus anthracis. The note with it: in vivo.

On to `O=C(O)c1cn(C2CC2)c2cc(N3CCNCC3)c(F)cc2c1=O` [ciprofloxacin], for which the “tolerance to selected dose” value in series [1] is “favorably tested”.
As for `C[C@H]1c2cccc(O)c2C(=O)C2=C(O)[C@]3(O)C(=O)C(C(N)=O)=C(O)[C@@H](N(C)C)[C@@H]3[C@@H](O)[C@@H]21` [doxycycline], in series [1], the tolerance result was “not well tolerated”.
`CN(C)[C@@H]1C(O)=C(C(N)=O)C(=O)[C@@]2(O)C(O)=C3C(=O)c4c(O)cccc4[C@@](C)(O)[C@H]3C[C@@H]12` [tetracycline] had a survival in series [2] of 60%.

Values taken from patent US9012608B2 (priority 2007, dated 2015).
